Assay results reported in publication PMC12251307, “One-Pot Synthesis of Novel Pyrimidine Derivatives with Potential Antidiabetic Activity Through Dual α-Glucosidase and α-Amylase Inhibitors” (Molecules, 2025).

Each compound was assayed against α-amylase (assay: α-amylase activity assay (colorimetric kit)). Details: IC50 ± SD, n = 5; acarbose as standard drug.
Type: biochemical
Protocol: (§1) All chemicals were supplied from Sigma-Aldrich (St. Louis, MO, USA). Melting points were determined via the Stuart SMP10 Digital Advanced MP apparatus (Cole-Parmer Ltd., Stone, UK) and are uncorrected. FTIR spectra were carried out on PerkinElmer (FTIR spectrometer, PerkinElmer Inc., Waltham, MA, USA), which mixed without using anhydrous KBr. The NMR spectra were recorded by JEOL RESONANCE spectrometer (Akishima, Japan) 500 MHZ by using DMSO-d6 as the solvent and chemical shifts (δ) and were recorded in parts per million (ppm) using tetramethyl silane (TMS) as the internal standard. The mass spectra were carried out on LC/MS spectroscopy (LCMS-8040 Shimadzu, Kyoto, Japan, model CAT-30A). Serial no. L20574900241 AE, 220–240 v~50/60 HZ 300 VA was used to record LCMS spectral data for samples. Elemental microanalysis was done on a Carlo Erba analyzer model 110 (Carlo Erba Instruments, Milan, Italy). Also used were α-amylase Assay Kit (Colorimetric) […] (Abcam, Cambridge, MA, USA), α-glucosidase Activity Assay Kit (Colorimetric) […] (Abcam, Cambridge, MA, USA), and Elisa: BioTek (Winooski, VT, USA) introduces Synergy Neo2 high performance Multi-Mode Microplate Reader.
The % inhibition was calculated as follows:% Inhibition = (Absorbancecontrol − Absorbancecompound) × 100/Absorbancecontrol
Compound COc1cc(NNC(=S)Nc2cccc(F)c2)nc(N)n1 [Compound 4, 2-(2-Amino-6-methoxypyrimidin-4-yl)-N-(3-fluorophenyl)hydrazine Carbothioamide] has an IC50 of 11.1 ± 0.12 µM.
With COc1cc(NNC(=S)Nc2cccc(Cl)c2)nc(N)n1 [Compound 6, 2-(2-Amino-6-methoxypyrimidin-4-yl)-N-(3-chlorophenyl) Hydrazine Carbothioamide] the IC50 was 15.17 ± 0.07 µM.
Compound COc1cc(NNC(=S)Nc2cccc(Br)c2)nc(N)n1 [Compound 9, 2-(2-Amino-6-methoxypyrimidin-4-yl)-N-(3-bromophenyl)-hydrazine Carbothioamide] has an IC50 of 18.16 ± 0.08 µM.
COc1cc(NNC(=S)Nc2cccc([N+](=O)[O-])c2)nc(N)n1 [Compound 11, 2-(2-Amino-6-methoxypyrimidin-4-yl)-N-(3-nitrophenyl)hydrazine Carbothioamide] gave an IC50 of 21.14 ± 0.12 µM.
COc1cccc(NC(=S)NNc2cc(OC)nc(N)n2)c1 [Compound 14, 2-(2-Amino-6-methoxypyrimidin-4-yl)-N-(3-methoxyphenyl)-hydrazine Carbothioamide] showed an IC50 of 33.18 ± 0.14 µM.
COc1cc(NNC(=S)Nc2ccc(C)cc2)nc(N)n1 [Compound 16, 2-(2-Amino-6-methoxypyrimidin-4-yl)-N-(p-tolyl)hydrazine Carbothioamide] was tested, and the IC50 was 34.24 ± 0.16 µM.
COc1cc(NNC(=S)Nc2cccc(C#N)c2)nc(N)n1 [Compound 17, 2-(2-Amino-6-methoxypyrimidin-4-yl)-N-(3-cyanophenyl)hydrazine Carbothioamide] showed an IC50 of 40.16 ± 0.11 µM.

The compounds below were run against α-glucosidase (assay: α-glucosidase activity assay (colorimetric kit)). Details: IC50 ± SD, n = 5; acarbose as standard drug.
Type: biochemical
Protocol: as §1
The α-glucosidase activity assay was conducted as we reported earlier. Samples (50 μL) were added to 96 wells, and the volume was adjusted to 100 μL/well with an assay buffer. For the reaction, 50 μL of reaction mix for each reaction were performed by adding assay buffer 47 μL and substrate mix 3 μL.
Work on COc1cc(NNC(=S)Nc2cccc(F)c2)nc(N)n1 [Compound 4, 2-(2-Amino-6-methoxypyrimidin-4-yl)-N-(3-fluorophenyl)hydrazine Carbothioamide] yielded an IC50 of 12.16 ± 0.12 µM.
In the case of COc1cc(NNC(=S)Nc2cccc(Cl)c2)nc(N)n1 [Compound 6, 2-(2-Amino-6-methoxypyrimidin-4-yl)-N-(3-chlorophenyl) Hydrazine Carbothioamide], the IC50 is reported as 16.13 ± 0.11 µM.
For COc1cc(NNC(=S)Nc2cccc(Br)c2)nc(N)n1 [Compound 9, 2-(2-Amino-6-methoxypyrimidin-4-yl)-N-(3-bromophenyl)-hydrazine Carbothioamide], the IC50 was 19.11 ± 0.11 µM.
With COc1cc(NNC(=S)Nc2cccc([N+](=O)[O-])c2)nc(N)n1 [Compound 11, 2-(2-Amino-6-methoxypyrimidin-4-yl)-N-(3-nitrophenyl)hydrazine Carbothioamide] the IC50 was 22.11 ± 0.13 µM.
With COc1cccc(NC(=S)NNc2cc(OC)nc(N)n2)c1 [Compound 14, 2-(2-Amino-6-methoxypyrimidin-4-yl)-N-(3-methoxyphenyl)-hydrazine Carbothioamide] the IC50 was 30.12 ± 0.13 µM.
COc1cc(NNC(=S)Nc2ccc(C)cc2)nc(N)n1 [Compound 16, 2-(2-Amino-6-methoxypyrimidin-4-yl)-N-(p-tolyl)hydrazine Carbothioamide] was tested, and the IC50 was 36.14 ± 0.12 µM.
COc1cc(NNC(=S)Nc2cccc(C#N)c2)nc(N)n1 [Compound 17, 2-(2-Amino-6-methoxypyrimidin-4-yl)-N-(3-cyanophenyl)hydrazine Carbothioamide] showed an IC50 of 42.19 ± 0.13 µM.
